From patent US11279733B2, “Peptide antibiotics” (priority 2017, dated 2022)
In brackets after ≈: the same amount, converted by molar mass. Like-named read-outs stand apart in the source and are kept apart here. Positions of bridges follow the written chain, without caps; N, C: chain ends. Non-standard residues stand in square brackets, D forms with d. Residues, ends and D or L forms follow the SMILES beside them. *: point of attachment. dPhe(4-NO2) = N[C@H](Cc1ccc([N+](=O)[O-])cc1)C(=O)O; Decanoyl(3R-OH) = CCCCCCC[C@@H](O)CC(=O)*; dBip = N[C@H](Cc1ccc(-c2ccccc2)cc1)C(=O)O; X3 = CCCCCCCCCCCC(O)CC(=O)*; Decanoyl = CCCCCCCCCC(=O)*; dDab = NCC[C@@H](N)C(=O)O; X6 = CC(C)CCCC(O)CC(=O)*; Dab = NCC[C@H](N)C(=O)O; Dap = NC[C@H](N)C(=O)O

Legend:
[1] = test system: S. aureus ATCC 25923, MSSA; conditions: ATCC 25923
Description: (§1) Bacteria were either obtained from American Type Culture Collection (ATCC; Manassas, Va., USA) or independent academic clinical isolate collections, as listed in Table 18 below. Bacteria were cultured in Nutrient broth (NB; Bacto Laboratories, catalogue No. 234000) or Mueller Hinton broth (MHB; Bacto Laboratories, catalogue No. 211443) at 37° C. overnight with shaking (˜180 RPM). A sample of each culture was then diluted 50-fold in fresh MHB and incubated at 37° C. for 2-3 h with shaking (˜180 RPM). Compound stock solutions were prepared as 0.64 mg/mL or 2.56 mg/mL in water. The compounds, at twice the final desired concentration, were serially diluted 2-fold across the wells of 96-well plates (Polystyrene, Corning, catalogue No. 3370). Mid-log phase bacterial cultures (after 2-3 h incubation) were diluted to a final concentration of 1×10^6 colony forming units (CFU)/mL, and 50 μL was added to each well giving a final cell density of 5×10^5 and a compound concentration range of 32 μg/mL to 0.015 μg/mL (128-0.06 μg/mL against P. aeruginosa PA9704).

[2] = test system: K. pneumoniae ATCC BAA-2146, NDM-1 pos; conditions: ATCC BAA-2146
Description: as §1

[3] = test system: P. aeruginosa GN_105, PmxR; conditions: GN 105, PmxR
Description: as §1

K. pneumoniae ATCC 13883 = conditions: ATCC 13883
Description: as §1

[4] = test system: K. pneumoniae GN_106, PmxR; conditions: GN 106, PmxR
Description: as §1

A. baumannii ATCC 19606 = conditions: ATCC 19606
Description: as §1

P. aeruginosa ATCC 27853 = conditions: ATCC 27853
Description: as §1

A. baumannii GN_093 PmxR = conditions: GN 093 PmxR
Description: as §1

[5] = test system: K. pneumoniae GN_102 PmxR; conditions: GN 102 PmxR
Description: as §1

[6] = test system: P. aeruginosa GN_043, PmxR
Description: as §1

E. coli ATCC 25922 = conditions: ATCC 25922
Description: as §1

[7] = test system: K. pneumoniae ATCC 700603, MDR; conditions: ATCC 700603
Description: as §1

| Structure (SMILES) | MIC S. aureus ATCC 25923, MSSA [1] [µg/mL] | MIC K. pneumoniae ATCC BAA-2146, NDM-1 pos [2] [µg/mL] | MIC P. aeruginosa GN_105, PmxR [3] [µg/mL] | MIC K. pneumoniae ATCC 13883 (K. pneumoniae ATCC 13883) [µg/mL] | MIC K. pneumoniae GN_106, PmxR [4] [µg/mL] | MIC A. baumannii ATCC 19606 (A. baumannii ATCC 19606) [µg/mL] | MIC P. aeruginosa ATCC 27853 (P. aeruginosa ATCC 27853) [µg/mL] | MIC A. baumannii GN_093 PmxR (A. baumannii GN_093 PmxR) [µg/mL] | MIC K. pneumoniae GN_102 PmxR [5] [µg/mL] | MIC E. coli ATCC 25922 (E. coli ATCC 25922) [µg/mL] | MIC K. pneumoniae ATCC 700603, MDR [7] [µg/mL] | other results |
| --- | --- | --- | --- | --- | --- | --- | --- | --- | --- | --- | --- | --- |
| CCCCCCCCCCCC(O)CC(=O)N[C@H](CCN)C(=O)N[C@H]1CCNC(=O)[C@H](CC(C)C)NC(=O)[C@H](CCN)NC(=O)[C@H](CCN)NC(=O)[C@H](CC(C)C)NC(=O)[C@@H](Cc2ccccc2)NC(=O)[C@H](CCN)NC1=O (stereo partly drawn) [compound 5015, 3OH-nC13CO-D-Dab-cyc[L-Dab-L-Dab-D-Phe-L-Leu-L-Dab-L-Dab-L-Leu]] (X3-[dDab][Dab][Dab][dF]L[Dab][Dab]L; lactam 2-C) | 4 (≈ 3.63 µM) | 8 (≈ 7.27 µM) | 4 (≈ 3.63 µM) | 4 (≈ 3.63 µM) | 4 (≈ 3.63 µM) | 4 (≈ 3.63 µM) | 4 (≈ 3.63 µM) | 8 (≈ 7.27 µM) | 8 (≈ 7.27 µM) | 4 (≈ 3.63 µM) | 8 (≈ 7.27 µM) | MIC P. aeruginosa GN_043, PmxR [6]: 4 µg/mL (≈ 3.63 µM) |
| CCCCCCCCCC(=O)N[C@H](CCN)C(=O)N[C@H]1CCNC(=O)[C@H](CC(C)C)NC(=O)[C@H](CCN)NC(=O)[C@H](CCN)NC(=O)[C@H](CC(C)C)NC(=O)[C@@H](Cc2ccccc2)NC(=O)[C@H](CCN)NC1=O [compound 5017, nC9CO-D-Dab-cyc[L-Dab-L-Dab-D-Phe-L-Leu-L-Dab-L-Dab-L-Leu]] (Decanoyl-[dDab][Dab][Dab][dF]L[Dab][Dab]L; lactam 2-C) | 16 (≈ 15.6 µM) | 16 (≈ 15.6 µM) | 4 (≈ 3.89 µM) | 8 (≈ 7.78 µM) | 16 (≈ 15.6 µM) | 8 (≈ 7.78 µM) | 2 (≈ 1.94 µM) | 16 (≈ 15.6 µM) | 32 (≈ 31.1 µM) | 4 (≈ 3.89 µM) | 16 (≈ 15.6 µM) | MIC P. aeruginosa GN_043, PmxR [6]: 2 µg/mL (≈ 1.94 µM) |
| CCCCCCC[C@@H](O)CC(=O)N[C@@H](CCCCN)C(=O)N[C@H]1CCNC(=O)[C@H](CC(C)C)NC(=O)[C@H](CCN)NC(=O)[C@H](CCN)NC(=O)[C@H](CC(C)C)NC(=O)[C@@H](Cc2ccccc2)NC(=O)[C@H](CCN)NC1=O [compound 5562, 3(R)OH-nC9CO-L-Lys-cyc[L-Dab-L-Dab-D-Phe-L-Leu-L-Dab-L-Dab-L-Leu]] ({Decanoyl(3R-OH)}-K[Dab][Dab][dF]L[Dab][Dab]L; lactam 2-C) | – | – | >32 | – | 4 (≈ 3.73 µM) | – | – | 32 (≈ 29.8 µM) | 4 (≈ 3.73 µM) | – | – | MIC, S. aureus ATCC 25923, MSSA [1]: 32 µg/mL (≈ 29.8 µM); MIC, K. pneumoniae ATCC BAA-2146, NDM-1 pos [2]: 8 µg/mL (≈ 7.46 µM); MIC, K. pneumoniae ATCC 13883 (K. pneumoniae ATCC 13883): 8 µg/mL (≈ 7.46 µM); MIC, A. baumannii ATCC 19606 (A. baumannii ATCC 19606): >32 µg/mL; MIC, P. aeruginosa ATCC 27853 (P. aeruginosa ATCC 27853): 2 µg/mL (≈ 1.86 µM); MIC P. aeruginosa GN_043, PmxR ([6]; Table 6, polymyxin-resistant): 4 µg/mL (≈ 3.73 µM); MIC, E. coli ATCC 25922 (E. coli ATCC 25922): 8 µg/mL (≈ 7.46 µM); MIC, K. pneumoniae ATCC 700603, MDR [7]: 4 µg/mL (≈ 3.73 µM) |
| CCCCCCC[C@@H](O)CC(=O)N[C@@H](CCN)C(=O)N[C@H]1CCNC(=O)[C@H](CC(C)C)NC(=O)[C@H](CN)NC(=O)[C@H](CCN)NC(=O)[C@H](CC(C)C)NC(=O)[C@@H](Cc2ccc(-c3ccccc3)cc2)NC(=O)[C@H](CCN)NC1=O [compound 5565, 3(R)OH-nC9CO-L-Dab-cyc[L-Dab-L-Dab-D-Bip-L-Leu-L-Dab-L-Dap-L-Leu]] ({Decanoyl(3R-OH)}-[Dab][Dab][Dab][dBip]L[Dab][Dap]L; lactam 2-C) | 2 (≈ 1.81 µM) | 16 (≈ 14.5 µM) | 4 (≈ 3.62 µM) | 4 (≈ 3.62 µM) | 16 (≈ 14.5 µM) | 8 (≈ 7.23 µM) | 4 (≈ 3.62 µM) | 16 (≈ 14.5 µM) | 32 (≈ 28.9 µM) | 4 (≈ 3.62 µM) | 8 (≈ 7.23 µM) | MIC P. aeruginosa GN_043, PmxR ([6]; polymyxin-resistant): 2 µg/mL (≈ 1.81 µM) |
| CC(C)CCCC(O)CC(=O)N[C@@H](CCN)C(=O)N[C@H]1CCNC(=O)[C@H](CC(C)C)NC(=O)[C@H](CCN)NC(=O)[C@H](CCN)NC(=O)[C@H](CC(C)C)NC(=O)[C@@H](Cc2ccccc2)NC(=O)[C@H](CCN)NC1=O (stereo partly drawn) [compound 5566, nC5(7-Me)CH(OH)CH2CO-L-Dab-cyc[L-Dab-L-Dab-D-Phe-L-Leu-L-Dab-L-Dab-L-Leu]] (X6-[Dab][Dab][Dab][dF]L[Dab][Dab]L; lactam 2-C) | – | – | 4 (≈ 3.88 µM) | – | 16 (≈ 15.5 µM) | – | – | 16 (≈ 15.5 µM) | 32 (≈ 31.1 µM) | – | – | MIC, S. aureus ATCC 25923, MSSA [1]: 2 µg/mL (≈ 1.94 µM); MIC, K. pneumoniae ATCC BAA-2146, NDM-1 pos [2]: 16 µg/mL (≈ 15.5 µM); MIC, K. pneumoniae ATCC 13883 (K. pneumoniae ATCC 13883): 4 µg/mL (≈ 3.88 µM); MIC, A. baumannii ATCC 19606 (A. baumannii ATCC 19606): 8 µg/mL (≈ 7.76 µM); MIC, P. aeruginosa ATCC 27853 (P. aeruginosa ATCC 27853): 4 µg/mL (≈ 3.88 µM); MIC P. aeruginosa GN_043, PmxR ([6]; Table 6, polymyxin-resistant): 2 µg/mL (≈ 1.94 µM); MIC, E. coli ATCC 25922 (E. coli ATCC 25922): 4 µg/mL (≈ 3.88 µM); MIC, K. pneumoniae ATCC 700603, MDR [7]: 8 µg/mL (≈ 7.76 µM) |
| CCCCCCC[C@@H](O)CC(=O)N[C@H](Cc1c[nH]c2ccccc12)C(=O)N[C@H]1CCNC(=O)[C@H](CC(C)C)NC(=O)[C@H](CCN)NC(=O)[C@H](CCN)NC(=O)[C@H](Cc2ccccc2)NC(=O)[C@@H](CC(C)C)NC(=O)[C@H](CCN)NC1=O [compound 6426, 3(R)OH-nC9CO-D-Trp-cyc[L-Dab-L-Dab-D-Leu-L-Phe-L-Dab-L-Dab-L-Leu]] ({Decanoyl(3R-OH)}-[dW][Dab][Dab][dL]F[Dab][Dab]L; lactam 2-C) | 8 (≈ 7.08 µM) | 8 (≈ 7.08 µM) | 8 (≈ 7.08 µM) | 8 (≈ 7.08 µM) | 4 (≈ 3.54 µM) | 16 (≈ 14.2 µM) | 8 (≈ 7.08 µM) | 16 (≈ 14.2 µM) | 4 (≈ 3.54 µM) | 4 (≈ 3.54 µM) | 8 (≈ 7.08 µM) | MIC P. aeruginosa GN_043, PmxR ([6]; P. aeruginosa GN_043, PmxR): 8 µg/mL (≈ 7.08 µM) |
| CCCCCCC[C@@H](O)CC(=O)N[C@H](Cc1ccc([N+](=O)[O-])cc1)C(=O)N[C@H]1CCNC(=O)[C@H](CC(C)C)NC(=O)[C@H](CCN)NC(=O)[C@H](CCN)NC(=O)[C@H](Cc2ccccc2)NC(=O)[C@@H](CC(C)C)NC(=O)[C@H](CCN)NC1=O [compound 6433, 3(R)OH-nC9CO-D-4NO2Phe-cyc[L-Dab-L-Dab-D-Leu-L-Phe-L-Dab-L-Dab-L-Leu]] ({Decanoyl(3R-OH)}-[dPhe(4-NO2)][Dab][Dab][dL]F[Dab][Dab]L; lactam 2-C) | 8 (≈ 7.04 µM) | 8 (≈ 7.04 µM) | 8 (≈ 7.04 µM) | 8 (≈ 7.04 µM) | 4 (≈ 3.52 µM) | 8 (≈ 7.04 µM) | 8 (≈ 7.04 µM) | 16 (≈ 14.1 µM) | 4 (≈ 3.52 µM) | 8 (≈ 7.04 µM) | 8 (≈ 7.04 µM) | MIC P. aeruginosa GN_043, PmxR ([6]; P. aeruginosa GN_043, PmxR): 4 µg/mL (≈ 3.52 µM) |
